Reference: US20140287120A1, “ORGANIC COMPOUNDS” (Givaudan S.A, priority 2011, published 2014)

Assay: Taste panel: intensity of umami and salt taste of solution B compared with reference solution A
Details: 10 ppm in a solution of 0.5% NaCl and 0.03% MSG, compared with solution A without compound; average rating of 4 flavourists; scale -3 (much lower than base) to 3 (much higher than base), 0 = same as base, 1 = slightly higher than base
Procedure: Two solutions were prepared:
A a solution of 0.5% NaCl and 0.03% MSG
B a solution of 0.5% NaCl and 0.03% MSG and 10 ppm Example 1 compound
The samples were tasted by a small group of flavourists (2 male, 2 female, aged between 30 and 60). The intensity of the umami and salt taste of solution B was compared with that of the reference (solution A) and rated according to the following intensity scale:
Taste effect much lower than base: −3
Taste effect lower than base: −2
Taste effect slightly lower than base: −1
Taste effect same as base: 0
Taste effect slightly higher than base: 1
Taste effect higher than base: 2
Taste effect much higher than base: 3
The results (average of rating given by the flavourists) were: […]

SMILES: CC(N)(CCC(=O)O)C(=O)O (racemic) [DL-2-methylglutamic acid, DL-2-Methylglutamic Acid]
- Intensity Taste Salt (NaCl): 1.00
- Intensity Taste Umami: 0.00
